What was measured:
[1] = target: Beta-arrestin-1 (Oryctolagus cuniculus, UniProt Q95223)
[2] = target: Platelet-activating factor receptor (Homo sapiens, UniProt P25105)
Sequence of Platelet-activating factor receptor (P25105 whole entry): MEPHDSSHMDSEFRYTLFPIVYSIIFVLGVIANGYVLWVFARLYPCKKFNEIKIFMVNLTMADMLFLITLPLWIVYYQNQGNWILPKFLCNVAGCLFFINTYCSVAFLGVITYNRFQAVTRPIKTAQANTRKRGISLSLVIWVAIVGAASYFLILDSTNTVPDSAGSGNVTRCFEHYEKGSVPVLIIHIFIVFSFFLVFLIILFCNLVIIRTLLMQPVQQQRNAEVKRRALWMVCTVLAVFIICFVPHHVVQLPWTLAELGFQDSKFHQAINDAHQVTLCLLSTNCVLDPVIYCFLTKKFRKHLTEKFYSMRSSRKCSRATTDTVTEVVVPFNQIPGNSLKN

Sequence of Beta-arrestin-1 (Q95223 whole entry): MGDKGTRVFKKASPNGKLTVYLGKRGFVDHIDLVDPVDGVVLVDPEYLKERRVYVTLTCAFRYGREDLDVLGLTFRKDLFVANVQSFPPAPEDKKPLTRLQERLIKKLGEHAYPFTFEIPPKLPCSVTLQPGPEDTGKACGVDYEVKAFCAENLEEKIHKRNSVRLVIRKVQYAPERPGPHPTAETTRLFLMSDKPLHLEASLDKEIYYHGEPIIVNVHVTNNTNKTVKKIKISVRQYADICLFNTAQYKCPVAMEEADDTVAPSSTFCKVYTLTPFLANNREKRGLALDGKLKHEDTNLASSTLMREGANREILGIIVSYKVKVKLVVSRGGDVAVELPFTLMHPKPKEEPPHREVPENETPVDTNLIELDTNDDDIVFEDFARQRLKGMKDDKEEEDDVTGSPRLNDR

CCCOc1c(OC)cc([C@H]2CC[C@H](c3cc(OC)c(OC)c(OC)c3)O2)cc1S(C)(=O)=O [L-659,989, (-)]
Ki [1]: 0.51 nM
Ki [2]: 5.48 nM

— BindingDB's records for PubMed 2841449 (Merck Sharp & Dohme Research Laboratories, 1988)
